Measured values published in patent US20020115678A1, “Compounds, compositions and methods for treating antibiotic-resistant infections” (priority 1996, published 2002).

Columns and labels:
[1] = system: Staphylococcus aureus methicillin-resistant wild type T67738; test: Susceptibility test (MIC, microtiter serial dilution), methicillin-resistant S. aureus; type: cell-based; conditions: MIC by serial dilution in Mueller-Hinton broth
Protocol: (§1) The strains were streaked on blood agar plates (trypticase soy broth containing 5% sheep cells). A single colony was isolated and grown in Mueller-Hinton Broth (MHB) as recommended by the national Committee for Clinical Laboratory Standards for rapidly growing bacteria. Candida species and related fungi were isolated in a similar manner on brain-heart infusion agar (BHI).
(§2) The antibiotic susceptibility profile of each strain was determined using standard microtiter dilution plates obtained from the Clinical Microbiology Laboratory at Ohio State University Hospitals. The Inocula were prepared by suspending a 4 hour log phase growth in MHB visually equal in turbidity of an 0.5 McFarland standard. Inocula were further diluted and added to microdilution trays to achieve a final density of approximately 1×10^5 CFU/ml. The trays were incubated for 16 to 20 hours at 35° C. The highest dilution at which wells remained clear was considered to be the minimum inhibitory concentration (MIC).
(§3) The MIC and minimum bacterial concentration (MBC) of the strains to the active agents were determined by two-fold dilutions in Mueller-Hinton broth. Susceptibility tests for ATCC-obtained microorganisms and clincal isolates of gram positive bacteria including methicillin-susceptible and resistant Staphylococci, Streptococci, Pneumococci and gram negative bacteria, including Enterobacteriaceae, Pseudomonas, Hemophilus and Neisseria, were performed in microtiter plates as described above. The MIC and MBC were determined after 48 hours incubation at 35-37° C. A sample of 0.01 ml was taken from each clear well at the MIC end-point and streaked on trypticase soy agar plates. After 24 hours incubation, the number of colonies was counted. The amount of the agent required to kill 99.9% of the bacteria was determined as the MBC. Susceptibility tests for ATCC isolates of Candida and other fungi were performed in BHI broth according to the NCCLS method. Two ml of MHB containing serial dilutions of the agents compounds were added to 13×100 mm tubes. An inoculum of 0.1 ml (prepared as described above) was then added to each tube. The final inoculum was approximately […]. The tubes were incubated at 35° C. in ambient air and read at 24 hours. The highest dilution at which the tubes remained clear was considered to be the MIC.
(§4) The MBC was determined as follows: After 48 hours incubation, tubes without visible growth were vortexed. A sample of 0.01 ml was taken from each tube and streaked on trypticase soy agar plates. After 24 hours, incubation, the number of colonies was counted. The amount of agent required to kill 99.9% of bacterial inoculum in the inoculum was determined as the MBC. Susceptibility tests for Mycobacteria were performed according to standard methods at the national Institutes of Health.
(§5) Compounds of the invention were dissolved in 1 ml of methanol and stored in aliquots at −70° C. They were diluted in Mueller-Hinton broth for final screening. Compositions were tested in 0.1 ml volumes by serial dilution in microtiter plates against Staphylococcus aureus methicillin-sensitive ATCC 29213 and the methicillin-resistant wild type T67738, as described above. The T67738 was resistant to most antimicrobial drugs, including ciprofloxacin.

[2] = system: Staphylococcus aureus methicillin-sensitive ATCC 29213; test: Susceptibility test (MIC, microtiter serial dilution), methicillin-sensitive S. aureus; type: cell-based; conditions: methicillin-sensitive S. aureus ATCC 29213; MIC by serial dilution in Mueller-Hinton broth
Protocol: as §1, §2, §3, §4, §5

bacterial pathogens = conditions: background statement; cited from earlier work
Mycobacteria = test: Susceptibility tests for Mycobacteria (standard methods, National Institutes of Health); type: cell-based
Protocol: as §4

OC(c1cc(-c2ccc(Cl)cc2)nc2ccccc12)C1CCCCN1 (centres unmarked) [#7929]
Effective Concentration S. aureous Resist. [1]: 6.25 µg/mL
Effective Concentration S. aureous Sens. [2]: 6.25 µg/mL

COc1cc(C(F)(F)F)c2nc(C(F)(F)F)cc(C(O)C3CCCCN3)c2c1 (centres unmarked) [#159314]
Effective Concentration S. aureous Resist. [1]: 3.1 µg/mL
Effective Concentration S. aureous Sens. [2]: 6.25 µg/mL

OC(c1cc(C(F)(F)F)nc2c(C(F)(F)F)cccc12)C1CCCCN1 (centres unmarked) [Mefloquine]
activity against bacterial pathogens in vitro (bacterial pathogens): some activity

OC(c1cc(-c2ccccc2)nc2c(Cl)cc(Cl)cc12)C1CCCCN1 (centres unmarked) [#7930]
Effective Concentration Mycobacteria (Mycobacteria): 2 µg/mL
Effective Concentration S. aureous Resist. [1]: 1.6 µg/mL
Effective Concentration S. aureous Sens. [2]: <.08 µg/mL

OC(c1cc(-c2ccc(C(F)(F)F)cc2)nc(-c2ccc(C(F)(F)F)cc2)c1)C1CCCCN1 (centres unmarked) [#153141]
Effective Concentration Mycobacteria (Mycobacteria): 0.5 µg/mL

OC(c1cc(-c2ccc(Cl)cc2)nc2c(Cl)cc(Cl)cc12)C1CCCCN1 (centres unmarked) [#7936]
Effective Concentration S. aureous Resist. [1]: <0.8 µg/mL
Effective Concentration S. aureous Sens. [2]: <0.8 µg/mL

COc1ccc2nc(-c3ccc(Cl)c(Cl)c3)cc(C(O)C3CCCCN3)c2c1 (centres unmarked) [#259398]
Effective Concentration S. aureous Resist. [1]: 1.56 µg/mL
Effective Concentration S. aureous Sens. [2]: 1.56 µg/mL

CCC1CN2CCC1CC2C(O)c1ccnc2ccc(OC)cc12 (centres unmarked) [#112312]
Effective Concentration Mycobacteria (Mycobacteria): 128 µg/mL
Effective Concentration S. aureous Resist. [1]: 1.56 µg/mL
Effective Concentration S. aureous Sens. [2]: 1.56 µg/mL

CCCC(CCC)NCC(O)c1cc(-c2ccc(Cl)cc2)nc(-c2ccc(Cl)cc2)c1 (centres unmarked) [#153136]
Effective Concentration S. aureous Resist. [1]: 3.0 µg/mL

O=C(c1cc(-c2ccccc2)nc2c(Cl)cc(Cl)cc12)C1CCCCN1 (centres unmarked) [#169446]
Effective Concentration Mycobacteria (Mycobacteria): 2 µg/mL
Effective Concentration S. aureous Resist. [1]: 1.6 µg/mL
Effective Concentration S. aureous Sens. [2]: 1.6 µg/mL
